ChEMBL document CHEMBL3860072, “Synthesis of a selective HDAC6 inhibitor active in neuroblasts” (Bioorg Med Chem Lett, 2016)

What was measured:
[1] = target: T1, Histone deacetylase 1 (Homo sapiens, UniProt Q13547)
[2] = target: T1, Histone deacetylase 1; assay: biochemical
[3] = target: T2, Protein deacetylase HDAC6 (Homo sapiens, UniProt Q9UBN7); assay: Inhibition of HDAC6 in human SHSY5Y cells using BATCP as substrate after 8 hrs by UHPLC-ESI-MS/MS analysis; assay type: cell-based, SH-SY5Y
T2 sequence (Q9UBN7 whole entry): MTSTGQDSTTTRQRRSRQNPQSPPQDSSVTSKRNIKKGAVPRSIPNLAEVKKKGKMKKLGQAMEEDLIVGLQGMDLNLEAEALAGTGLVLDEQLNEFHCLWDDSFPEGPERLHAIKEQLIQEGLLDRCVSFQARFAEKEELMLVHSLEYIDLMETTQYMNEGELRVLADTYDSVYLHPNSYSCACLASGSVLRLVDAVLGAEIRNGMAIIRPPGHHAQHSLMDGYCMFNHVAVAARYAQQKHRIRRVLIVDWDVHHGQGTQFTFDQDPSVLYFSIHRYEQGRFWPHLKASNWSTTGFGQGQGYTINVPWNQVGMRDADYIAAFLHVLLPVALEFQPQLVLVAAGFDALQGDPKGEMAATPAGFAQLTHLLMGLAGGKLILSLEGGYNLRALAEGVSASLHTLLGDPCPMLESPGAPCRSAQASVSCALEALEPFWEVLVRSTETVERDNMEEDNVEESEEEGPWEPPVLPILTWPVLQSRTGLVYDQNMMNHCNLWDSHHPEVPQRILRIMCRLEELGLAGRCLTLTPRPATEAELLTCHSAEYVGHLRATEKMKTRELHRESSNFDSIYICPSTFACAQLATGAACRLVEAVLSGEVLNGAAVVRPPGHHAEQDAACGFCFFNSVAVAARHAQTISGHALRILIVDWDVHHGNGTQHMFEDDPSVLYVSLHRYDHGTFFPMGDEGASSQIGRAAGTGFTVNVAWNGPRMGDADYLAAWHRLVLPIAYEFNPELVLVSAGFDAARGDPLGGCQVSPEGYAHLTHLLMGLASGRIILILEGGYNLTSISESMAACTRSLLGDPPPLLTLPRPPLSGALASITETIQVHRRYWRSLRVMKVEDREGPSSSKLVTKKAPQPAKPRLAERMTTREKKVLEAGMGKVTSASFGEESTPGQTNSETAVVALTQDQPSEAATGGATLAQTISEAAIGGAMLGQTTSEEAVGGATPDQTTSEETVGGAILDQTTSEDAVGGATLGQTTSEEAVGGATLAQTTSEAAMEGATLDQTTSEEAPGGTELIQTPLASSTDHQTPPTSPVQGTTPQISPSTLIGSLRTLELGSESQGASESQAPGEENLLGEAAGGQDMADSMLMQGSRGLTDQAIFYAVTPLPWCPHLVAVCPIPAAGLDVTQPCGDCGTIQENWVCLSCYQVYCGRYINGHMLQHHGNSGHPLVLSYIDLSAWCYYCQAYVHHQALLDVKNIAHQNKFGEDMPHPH

[4] = Effective passive permeability of the compound assessed as membrane retention at 100 uM at pH 7.4 after 18 hrs by UHPLC-UV based PAMPA-BBB assay; assay type: ADME; conditions: pH 7.4, 18 h
[5] = Effective passive permeability of the compound at 100 uM at pH 7.4 after 18 hrs by UHPLC-UV based PAMPA-BBB assay; assay type: ADME; conditions: read-out: Peff
[6] = Inhibition of HDAC in human SHSY5Y cells using MAL as substrate after 8 hrs by UHPLC-ESI-MS/MS analysis; assay type: cell-based; conditions: SH-SY5Y
[7] = target: Histone deacetylase 1/2/3 (Homo sapiens, UniProt Q13547+O15379+Q92769); assay type: protein assay
[8] = target: T2, Protein deacetylase HDAC6; assay: Inhibition of human recombinant HDAC6 expressed in baculovirus infected insect cells using BATCP as substrate after 4 hrs by UHPLC-ESI-MS/MS analysis

T1 sequence (Q13547 whole entry): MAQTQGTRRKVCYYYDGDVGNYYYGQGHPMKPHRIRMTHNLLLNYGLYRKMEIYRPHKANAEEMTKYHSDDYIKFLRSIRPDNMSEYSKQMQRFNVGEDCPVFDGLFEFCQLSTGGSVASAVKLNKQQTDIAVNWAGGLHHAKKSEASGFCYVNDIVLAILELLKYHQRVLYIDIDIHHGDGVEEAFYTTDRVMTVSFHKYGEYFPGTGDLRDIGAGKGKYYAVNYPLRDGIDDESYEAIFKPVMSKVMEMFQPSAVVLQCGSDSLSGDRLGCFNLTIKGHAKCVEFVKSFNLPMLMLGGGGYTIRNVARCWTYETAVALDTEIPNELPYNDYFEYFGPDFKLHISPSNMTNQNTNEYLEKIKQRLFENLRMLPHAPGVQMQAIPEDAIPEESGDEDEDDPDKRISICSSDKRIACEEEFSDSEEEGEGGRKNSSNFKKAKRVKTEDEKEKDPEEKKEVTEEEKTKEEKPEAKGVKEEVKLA

Row | SMILES | IC50 [1] [nM] | IC50 [2] [nM] | IC50 [3] [nM] | R% [4] [%] | Papp at 18 h, 100 µM [5] [×10⁻⁶ cm/s] | IC50 [6] [nM] | IC50 [7] [nM] | IC50 [8] [nM]
1 | O=C(CCCCCc1ccc2c(c1)OCO2)NO | 973 | 560 | 164 | 6.8 | 8.7 | 310 | 188.1 | 36.7
2 | O=C(CCCCCCC(=O)NO)NO [SUBEROHYDROXAMIC ACID] |  |  |  | < 1 | < 2 |  |  | 
3 | CC(/C=C/C(=O)NO)=C\[C@@H](C)C(=O)c1ccc(N(C)C)cc1 [TRICHOSTATIN] |  |  |  |  |  | 9.1 |  | 
4 | CN1CCc2c(c3ccccc3n2Cc2ccc(C(=O)NO)cc2)C1 [TUBASTATIN A] |  |  |  | 70.8 | 6.8 | 122 |  | 
5 | CC(C)(C)OC(=O)ON(C(=O)CCCCCCC(=O)N(OC(=O)OC(C)(C)C)C(=O)OC(C)(C)C)C(=O)OC(C)(C)C |  |  |  | < 1 | < 2 |  |  | 
